Source: patent US6756045B1, “Topically applied idebenone-containing agent with protective and regenerative effect” (priority 1999, dated 2004)

Tests used:
[1] = tested on: macrophage LDL oxidation systems; assay: macrophage LDL oxidation system, lipid hydroperoxides by HPLC chemiluminescence; type: cell-based; settings: for antioxidative effect in combination with tocopherol: combined with tocopherol, in the course of time, after 24 hours
Description: In separate pre-tests, idebenone was used in the macrophage LDL oxidation systems as anti-oxidant by way of comparison to alpha-tocopherol, ascorbic acid, coenzyme Q-10 and glutathione. This system is suitable for the simulation of cell-promoted oxidation of lipids induced by lipoxygenase, such as for example occurs due to UV radiation. To determine the antioxidative effect of the individual substances, the amount of primary degradation products of lipid peroxidation, the lipid hydroperoxides, occurring in the course of time after 8 or 24 hours was determined by means of an HPLC chemiluminescence method (E. Wieland et al., Fresenius J. Anal. Chem., 343, 62-63 (1992)). […] The values given in the following tables relate to nmoles of measured lipid hydroperoxides per mg of LDL protein.

tissue = settings: in the tissue under pro-oxidative conditions; cited from earlier work
[2] = oral administration; cited from earlier work
[3] = oxidation system A (Mk + LDL), 50 μmoles/litre antioxidant, 8 hours
[4] = oxidation system A (Mk + LDL), 50 μmoles/litre antioxidant, 24 hours
[5] = oxidation system B (Mk + LDL + 100 μmoles/liter α-tocopherol), 50 μmoles/litre further antioxidant, 8 hours
[6] = oxidation system B (Mk + LDL + 100 μmoles/liter α-tocopherol), 50 μmoles/litre further antioxidant, 24 hours
[7] = oxidation system A (Mk + LDL), 10 μmoles/litre antioxidant, 8 hours
[8] = oxidation system A (Mk + LDL), 10 μmoles/litre antioxidant, 24 hours
[9] = oxidation system B (Mk + LDL + 100 μmoles/liter α-tocopherol), 10 μmoles/litre further antioxidant, 8 hours
[10] = oxidation system B (Mk + LDL + 100 μmoles/liter α-tocopherol), 10 μmoles/litre further antioxidant, 24 hours

Q: For `O=C1O[C@H]([C@@H](O)CO)C(O)=C1O` [ascorbic acid], which “antioxidative effect in combination with tocopherol” value [1] is on record?
A: significantly lower antioxidative effect

Q: And the lipid hydroperoxides [1, 3]?
A: 0 nmoles per mg of LDL protein

Q: And the lipid hydroperoxides [1, 4]?
A: 1.7 nmoles per mg of LDL protein

Q: And the lipid hydroperoxides [1, 5]?
A: 1.7 nmoles per mg of LDL protein

Q: What about the lipid hydroperoxides [1, 6] of the same molecule?
A: 25.3 nmoles per mg of LDL protein

Q: With `COC1=C(OC)C(=O)C(C/C=C(\C)CC/C=C(\C)CC/C=C(\C)CC/C=C(\C)CC/C=C(\C)CC/C=C(\C)CC/C=C(\C)CC/C=C(\C)CC/C=C(\C)CCC=C(C)C)=C(C)C1=O` [coenzyme Q-10] as the molecule, how does the lipid hydroperoxides [1, 7] read?
A: 69 nmoles per mg of LDL protein

Q: What about the lipid hydroperoxides [1, 8] of the same molecule?
A: 115.8 nmoles per mg of LDL protein

Q: What about the lipid hydroperoxides [1, 9] of the same molecule?
A: 26.8 nmoles per mg of LDL protein

Q: What about the lipid hydroperoxides [1, 10] of the same molecule?
A: 143.7 nmoles per mg of LDL protein

Q: With `N[C@@H](CCC(=O)N[C@@H](CS)C(=O)NCC(=O)O)C(=O)O` [glutathione] as the molecule, how does the lipid hydroperoxides [1, 3] read?
A: 51.7 nmoles per mg of LDL protein

Q: What about the lipid hydroperoxides [1, 4] of the same molecule?
A: 119.0 nmoles per mg of LDL protein

Q: What about the lipid hydroperoxides [1, 5] of the same molecule?
A: 23.3 nmoles per mg of LDL protein

Q: And the lipid hydroperoxides [1, 6]?
A: 129.8 nmoles per mg of LDL protein

Q: For `COC1=C(OC)C(=O)C(CCCCCCCCCCO)=C(C)C1=O` [idebenone, 6-(10-hydroxydecyl)-2,3-dimethoxy-5-methyl-1,4-benzoquinone], which “protection against loss of alpha-tocopherol and coenzyme Q-10” value (tissue) is on record?
A: protection against the loss of alpha-tocopherol and coenzyme Q-10

Q: And the toxic effects [2]?
A: no toxic effects

Q: What about the “antioxidative effect in combination with tocopherol” value [1] of the same molecule?
A: reliably intercept the pro-oxidative effect of tocopherol oxidation products

Q: What about the “antioxidative effect compared to ascorbic acid, alpha-tocopherol and glutathione” value ([1]; idebenone 10 μmoles/liter vs ascorbic acid 50, alpha-tocopherol 100, glutathione 50 μmoles/liter) of the same molecule?
A: clearly stronger antioxidative effect

Q: What about the lipid hydroperoxides [1, 7] of the same molecule?
A: 0 nmoles per mg of LDL protein

Q: And the lipid hydroperoxides [1, 8]?
A: 0 nmoles per mg of LDL protein

Q: And the lipid hydroperoxides [1, 9]?
A: 1.9 nmoles per mg of LDL protein

Q: And the lipid hydroperoxides [1, 10]?
A: 2.6 nmoles per mg of LDL protein

Q: Which lipid hydroperoxides ([1]; oxidation system A (Mk + LDL), 100 μmoles/litre antioxidant, 8 hours) does the source give for `Cc1c(C)c2c(c(C)c1O)CC[C@@](C)(CCC[C@H](C)CCC[C@H](C)CCCC(C)C)O2` [α-tocopherol, alpha-tocopherol] here?
A: 32.8 nmoles per mg of LDL protein

Q: And the lipid hydroperoxides ([1]; oxidation system A (Mk + LDL), 100 μmoles/litre antioxidant, 24 hours)?
A: 198.0 nmoles per mg of LDL protein
